The text below walks through data of patent US20040185566A1, “Polypeptides toxic to nematodes and methods of use” (priority 2003, published 2004).

Read-outs that look alike come from different tables or passages of the source.

The target in one data set is SMP #1 (Serratia marcescens, UniProt P23694, N428Q/P266L). The class given is biochemical, S. marcescens NRRL B-23112.
The subject of a further data set is A. suum. Put plainly: Assay for lytic activity against live A. suum. As to conditions: A. suum.
The subject of a further data set is R. similis. In words: Assay for lytic activity against R. similis (microtiter plates). In kind it is in vivo. As for the experimental part: The assays were performed in microtiter plates. Ten microliters of R. similissuspensions were placed in microtiter plate wells. Serially diluted SMP #1 (100U in 0.1 ml stock) was added to the wells. PBS was added to a series of wells containing R. similis as a control. The nematodes were stored at 20° C. and examined for lytic effects or death at 48 and 96 hours.

Sequence of SMP #1 (P23694 17-487 P266L/N428Q): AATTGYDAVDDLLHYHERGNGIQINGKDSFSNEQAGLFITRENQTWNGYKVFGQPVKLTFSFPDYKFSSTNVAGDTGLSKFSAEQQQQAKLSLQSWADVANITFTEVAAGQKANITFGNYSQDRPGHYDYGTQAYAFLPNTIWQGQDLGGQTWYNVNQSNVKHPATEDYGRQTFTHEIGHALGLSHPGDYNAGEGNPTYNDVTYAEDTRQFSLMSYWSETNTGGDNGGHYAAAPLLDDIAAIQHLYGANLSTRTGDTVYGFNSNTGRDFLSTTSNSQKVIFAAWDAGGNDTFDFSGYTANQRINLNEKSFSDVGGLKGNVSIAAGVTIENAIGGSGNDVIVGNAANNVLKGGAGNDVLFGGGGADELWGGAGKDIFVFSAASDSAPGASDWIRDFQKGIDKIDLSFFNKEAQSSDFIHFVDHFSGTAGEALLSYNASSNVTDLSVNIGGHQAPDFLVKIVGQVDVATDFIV

On to `CC(C)C[C@H](NC(=O)[C@H]1O[C@@H]1C(=O)O)C(=O)NCCCCN=C(N)N` [E-64], for which, on SMP #1 (E-64 20 μg/ml), the “inhibition of SMP #1 proteolytic activity” value (“inhibition” below) is “not inhibited”.

As to `O=C(O)CN(CCN(CC(=O)O)CC(=O)O)CC(=O)O` [EDTA], the “inhibition” value against SMP #1 (EDTA 9μg/ml) is reported as “inhibited”.

With `Cl.NCCc1ccc(S(=O)(=O)F)cc1` [Pefabloc SC], the “inhibition” value against SMP #1 (Pefabloc SC 2000 μ/ml) is on record as “not inhibited”.

In the case of aprotinin, at SMP #1 (aprotinin 4 μg/ml), the “inhibition” value was “not inhibited”.

Turning to “serratiopeptidase [SMP #2, reference compound]”, in the data set on A. suum, the “lysis / mortality of the nematode on contact” value is recorded as “does not lyse or cause significant mortality”. In the data set on R. similis (10 U/well, 10 wells, 20° C.), the “Dead (nematodes counted)” value turned out to be 109 and the “Live (nematodes counted)” value amounted to 175. Besides, in the data set on R. similis (10 U/well, 10 wells, 20° C., significant difference (p < 0.05) between treatments), the “% mortality” value is reported as 38%. Besides, the “lysis / mortality of the nematode on contact” value in the data set with R. similis (R. similis) is reported as “does not lyse or cause significant mortality”.
